The test has as its target NTR1 (Homo sapiens, UniProt P30989). Description: In vitro competitive binding on HT-29 cells against 177Lu-N1.

Consider two molecules from publication PMC4593760 (Nuclear medicine and biology, 2015).

In general, IC50 refers to the concentration that inhibits the measured activity by half. Low readings indicate greater potency in that assay, high ones weaker potency in that assay.

NTR1, sequence (P30989 whole entry): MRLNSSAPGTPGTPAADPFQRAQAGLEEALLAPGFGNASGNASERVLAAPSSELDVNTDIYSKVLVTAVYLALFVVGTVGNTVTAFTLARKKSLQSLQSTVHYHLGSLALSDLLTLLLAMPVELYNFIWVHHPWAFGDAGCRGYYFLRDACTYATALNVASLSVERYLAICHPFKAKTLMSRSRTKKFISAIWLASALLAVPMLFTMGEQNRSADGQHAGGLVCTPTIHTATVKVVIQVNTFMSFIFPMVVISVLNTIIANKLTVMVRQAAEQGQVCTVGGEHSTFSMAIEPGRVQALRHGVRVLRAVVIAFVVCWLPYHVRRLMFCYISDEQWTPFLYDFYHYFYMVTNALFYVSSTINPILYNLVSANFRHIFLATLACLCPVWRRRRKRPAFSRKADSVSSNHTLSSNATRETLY

Take `Cc1cc(O)cc(C)c1C[C@H](NC(=O)[C@@H]1CCCN1C(=O)[C@H](CCCNC(=N)N)NC(=O)[C@H](CCCNC(=N)N)N(C)C(=O)[C@@H]1CCCN1C(=O)[C@H](CCCCN)NC(=O)CN1CCN(CC(=O)O)CCN(CC(=O)O)CCN(CC(=O)O)CC1)C(=O)N[C@H](C(=O)N[C@@H](CC(C)C)C(=O)O)C(C)(C)C` [N0, DOTA-Lys-Pro-(N-Me)Arg-Arg-Pro-Dmt-Tle-Leu-OH]: the IC50 worked out at 52.3 ± 1.5 nM. `Cc1cc(O)cc(C)c1C[C@H](NC(=O)[C@@H]1CCCN1C(=O)[C@H](CCCNC(=N)N)NC(=O)[C@H](CCCNC(=N)N)N(C)C(=O)[C@@H]1CCCN1C(=O)[C@H](CCCCN)NC(=O)CCNC(=O)CN1CCN(CC(=O)O)CCN(CC(=O)O)CCN(CC(=O)O)CC1)C(=O)N[C@H](C(=O)N[C@@H](CC(C)C)C(=O)O)C(C)(C)C` [N1, DOTA-β-Ala-Lys-Pro-(N-Me)Arg-Arg-Pro-Dmt-Tle-Leu-OH] returned an IC50 of 27.6 ± 1.3 nM.
